Laboratory results published in publication PMC4879574, “Identification of Leishmania donovani Topoisomerase 1 inhibitors via intuitive scaffold hopping and bioisosteric modification of known Top 1 inhibitors” (Scientific Reports, 2016).
Read-outs that look alike come from different tables or passages of the source.

Tests used:
[1] = molecular target: Leishmania donovani Topoisomerase 1 (LdTop1) (Leishmania donovani, UniProt A0A3Q8IHS4+Q8WQM6); assay: Plasmid DNA relaxation assay, LdTop1 (simultaneous incubation); format: biochemical
Leishmania donovani Topoisomerase 1 (LdTop1), sequence (Q8WQM6 entry or part of it): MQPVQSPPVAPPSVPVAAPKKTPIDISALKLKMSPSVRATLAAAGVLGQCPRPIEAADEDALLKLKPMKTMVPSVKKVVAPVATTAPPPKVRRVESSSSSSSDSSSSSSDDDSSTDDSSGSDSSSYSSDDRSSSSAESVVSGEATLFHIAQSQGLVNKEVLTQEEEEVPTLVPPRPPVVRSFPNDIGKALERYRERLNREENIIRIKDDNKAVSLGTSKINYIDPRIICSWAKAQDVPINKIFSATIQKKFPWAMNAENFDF
Leishmania donovani Topoisomerase 1 (LdTop1), sequence (A0A3Q8IHS4 entry or part of it): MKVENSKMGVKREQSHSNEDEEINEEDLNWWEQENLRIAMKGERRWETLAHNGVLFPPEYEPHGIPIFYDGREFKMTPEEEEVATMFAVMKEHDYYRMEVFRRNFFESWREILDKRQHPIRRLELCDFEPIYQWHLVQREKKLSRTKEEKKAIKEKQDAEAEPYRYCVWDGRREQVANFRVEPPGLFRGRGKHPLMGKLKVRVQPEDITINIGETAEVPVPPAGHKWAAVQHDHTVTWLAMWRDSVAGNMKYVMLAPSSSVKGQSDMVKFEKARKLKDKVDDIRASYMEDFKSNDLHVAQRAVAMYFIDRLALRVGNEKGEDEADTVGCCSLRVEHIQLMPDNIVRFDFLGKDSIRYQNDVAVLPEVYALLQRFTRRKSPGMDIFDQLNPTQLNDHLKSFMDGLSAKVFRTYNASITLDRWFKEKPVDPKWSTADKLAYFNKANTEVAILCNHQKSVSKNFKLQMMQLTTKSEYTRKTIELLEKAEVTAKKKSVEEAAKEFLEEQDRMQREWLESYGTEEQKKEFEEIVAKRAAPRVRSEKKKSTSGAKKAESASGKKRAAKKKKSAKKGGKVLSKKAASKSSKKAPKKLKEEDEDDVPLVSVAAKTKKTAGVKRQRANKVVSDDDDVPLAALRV
Protocol: (§1) To investigate the inhibitory effect of our library compounds on the DNA relaxation activity of the recombinant Human and Leishmania topoisomerase 1 (Table 2), assays were performed involving supercoiled plasmid DNA, the enzymes (HTop1 and LdTop1) and our molecules. The enzymes were purified by the standard literature procedure.
All the experiments were conducted thrice and representative data from once set of them are expressed as mean ± SD.
(§2) The type I DNA topoisomerase are assayed by decreased mobility of the relaxed isomers of supercoiled pBS (SK^+) [pBlue-script (SK^+)] DNA in agarose gel. The relaxation assay was carried out as described previously with LdTop1B and HTop I, diluted in the relaxation buffer (25 mM Tris–HCl, pH 7.5, 5% glycerol, 0.5 mM DTT, 10 mM MgCl2, 50 mM KCl, […] and […] BSA) and supercoiled plasmid pBS (SK^+) DNA (85–95% were negatively supercoiled, with remainder being nicked circles)[9][28][29]. The reconstituted enzyme LdTop1B was assayed at 50 mM KCl concentration as described before. For all kinetic studies, the reaction mixtures containing the buffer and DNA were heated to 37 °C before addition of the enzymes. The reactions were rapidly quenched using stop solution and kept on ice. The gels were stained with ethidium bromide (EtBr) ([…]) and the amount of supercoiled monomer DNA band fluorescence were quantified by integration using Gel Doc 2000 under UV illumination (Bio-Rad Quantity One Software), as described previously.
Cells harvested from 1 litre of culture were separately lysed by lysozyme/sonication, and the proteins were purified through Ni-NTA (Ni^2+-nitriloacetate-agarose column (Qiagen, Hilden, Germany) followed by a phospho-cellulose column (P11 cellulose; Whatman, Maidstone Kent, UK) as described previously. Finally, the purified proteins LdTOP1L and LdTOP1S were stored at −70 °C. The concentrations of each protein were quantified by using Bradford Reagent (PIERCE, Thermo Fisher Scientific Inc., Rockford, USA). Purified LdTOP1L was mixed with purified LdTOP1S at a molar ratio of 1:1 to a total protein concentration of 0.5 mg/ml in reconstitution buffer [50 mM potassium phosphate, pH 7.5, 0.5 mM DTT, 1 mM EDTA, 0.1 mM PMSF and 10% (v/v) glycerol]. The mixture was dialyzed overnight at 4 °C and dialyzed fractions were used for plasmid relaxation activity.

[2] = molecular target: T1, Human Top1 (HTop1) (Homo sapiens, UniProt P11387); assay: Plasmid DNA relaxation assay, HTop1; format: biochemical; conditions: averages of three experiments, read-out: HTop1 inhibition (EC50)
T1 construct: made in house; host or cells: Sf-9 insect cells infected with recombinant baculovirus (gift from Prof. J. J. Champoux)
T1 sequence (P11387 1-765): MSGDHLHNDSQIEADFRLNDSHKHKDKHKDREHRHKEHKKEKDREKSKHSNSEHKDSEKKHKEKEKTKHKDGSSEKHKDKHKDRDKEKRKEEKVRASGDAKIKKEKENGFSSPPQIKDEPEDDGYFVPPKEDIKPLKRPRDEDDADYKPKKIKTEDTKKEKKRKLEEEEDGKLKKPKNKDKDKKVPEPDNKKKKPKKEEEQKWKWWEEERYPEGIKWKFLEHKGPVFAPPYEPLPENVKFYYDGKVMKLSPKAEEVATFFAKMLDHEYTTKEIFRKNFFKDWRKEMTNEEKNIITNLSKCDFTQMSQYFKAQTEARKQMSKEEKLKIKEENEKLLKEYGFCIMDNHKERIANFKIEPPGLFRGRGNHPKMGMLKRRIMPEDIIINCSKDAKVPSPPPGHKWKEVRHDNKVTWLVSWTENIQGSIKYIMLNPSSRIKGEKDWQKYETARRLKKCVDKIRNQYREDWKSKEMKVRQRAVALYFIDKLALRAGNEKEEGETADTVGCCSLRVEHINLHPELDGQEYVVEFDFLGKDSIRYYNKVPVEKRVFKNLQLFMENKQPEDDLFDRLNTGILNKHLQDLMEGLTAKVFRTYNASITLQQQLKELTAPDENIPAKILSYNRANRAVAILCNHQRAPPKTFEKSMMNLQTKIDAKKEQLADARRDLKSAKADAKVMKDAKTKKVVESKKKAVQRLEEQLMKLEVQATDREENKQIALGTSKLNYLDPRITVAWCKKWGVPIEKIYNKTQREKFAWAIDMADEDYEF
Protocol: as §1, §2
The wild-type HTop1 (91 kDa) was purified from Sf-9 insect cells infected with the recombinant baculovirus (a kind gift from Prof. J. J. Champoux). Approximately, 1 * 10^9 Sf-9 cells were infected with the recombinant virus, and cells were harvested after 48-h of infection. The cells were lysed and enzyme was purified as described. Briefly, at 48 h post-infection, approximately 3 * 10^9 Sf-9 cells were harvested by centrifugation for 5 min at 400 * g. The cells were resuspended in 1 liter of ice-cold phosphate-buffered saline and centrifuged for 5 min at 400 * g. The nuclei were washed twice in 80 ml of lysis buffer minus Triton X-100 and resuspended in 40 ml of resuspension buffer (50 mM KCl, 10 mM Tris-Cl, pH 7.5, 2 mM MgCl2, 25 mM DTT, 0.4 mg/ml phenylmethylsulfonyl fluoride, 0.12 mg/ml aprotinin). The nuclear extract was stirred for 5 min at ~200 rpm. With continued stirring, 50 ml of polyethylene glycol (PEG) buffer (18% PEG 8000, 1 M NaCl, 10% glycerol) was added dropwise in order to precipitate the DNA. The PEG precipitate was pelleted by centrifugation and the resulting PEG supernatant was dialyzed against 4 liters of potassium phosphate buffer. The dialyzed PEG supernatant passed over a 10-ml bed volume of phosphocellulose (Whatman P11) equilibrated with PPB. The HTop1 flowed through the PS column and then passed over a Mono Q column followed by loaded onto a Mono S column. The Mono S column was eluted with a 25-ml 50–200 mM KPO4, pH 7.4, gradient. […] The peak Mono S fractions were pooled, concentrated with an Amicon ultrafiltration cell, dialyzed into storage buffer (50% glycerol, 10 mM Tris-hydrochloride, pH 7.5, 1 mM DTT, 1 mM EDTA), and stored at −20 °C.

[3] = plasmid DNA relaxation, averages of three experiments, read-out: LDTop1 inhibition (EC50)
[4] = LdTop1 relaxation, 12.5 uM, read-out: % inhibition, mean data
[5] = LdTop1 relaxation, 25 uM, read-out: % inhibition, mean data
[6] = LdTop1 relaxation, 50 uM, read-out: % inhibition, mean data
[7] = LdTop1 relaxation, 100 uM, read-out: % inhibition, mean data
[8] = read-out: % inhibition (CPT 100%), data 1, LdTop1 relaxation, 12.5 uM
[9] = read-out: % inhibition (CPT 100%), data 1, LdTop1 relaxation, 25 uM
[10] = read-out: % inhibition (CPT 100%), data 1, LdTop1 relaxation, 50 uM
[11] = read-out: % inhibition (CPT 100%), data 1, LdTop1 relaxation, 100 uM
[12] = read-out: % inhibition (CPT 100%), data 2, LdTop1 relaxation, 12.5 uM
[13] = read-out: % inhibition (CPT 100%), data 2, LdTop1 relaxation, 25 uM
[14] = read-out: % inhibition (CPT 100%), data 2, LdTop1 relaxation, 50 uM
[15] = read-out: % inhibition (CPT 100%), data 2, LdTop1 relaxation, 100 uM
[16] = supplement sheet Ld Top 1 data, concentrations in uM, read-out: EC50 (LdTop1, supplement sheet)

COc1cccc(/C=C2\OC(=O)c3c2cc(C)[nH]c3=O)c1OC [Compound 12] was tested, and the “LdTop1 inhibitory activity” value ([1]; plasmid DNA relaxation) was “inactive”, the EC50 [1, 3] was over 100 µM and the EC50 [2] was over 100 µM.

Cc1cc2c(c(=O)[nH]1)C(=O)O/C2=C\c1ccccc1 [Compound 13] gave an EC50 [1, 3] of over 100 µM and an EC50 [2] of over 100 µM.

For Cc1cc2c(c(=O)[nH]1)C(=O)O/C2=C\c1cccc(Cl)c1 [Compound 14], the “% inhibition (CPT 100%), data 1” value ([1]; LdTop1 relaxation, 12.5 uM) was 32.026%, the inhibition at 12.5 µM [1, 4] was 30.6% and the “% inhibition (CPT 100%), data 1” value ([1]; LdTop1 relaxation, 25 uM) was 46.8807%. The inhibition at 25 µM [1, 5] was 48.1%, the “% inhibition, mean data” value ([1]; LdTop1 relaxation, 50 uM) was 61.4846% and the inhibition at 50 µM [1, 6] was 61.5%. The “% inhibition (CPT 100%), data 1” value ([1]; LdTop1 relaxation, 100 uM) was 88.2434%, the “% inhibition (CPT 100%), data 2” value ([1]; LdTop1 relaxation, 100 uM) was 86.2086% and the “% inhibition, mean data” value ([1]; LdTop1 relaxation, 100 uM) was 87.226%. For the same compound, the inhibition at 100 µM [1, 7] was 87.2%, the “LdTop1 inhibitory activity” value ([1]; plasmid DNA relaxation) was “considerable activity” and the inhibition at 12.5 µM [1, 8] was 32%. For the same compound, the inhibition at 25 µM [1, 9] was 46.9%, the inhibition at 50 µM [1, 10] was 58.6% and the inhibition at 100 µM [1, 11] was 88.2%. For the same compound, the inhibition at 12.5 µM [1, 12] was 29.1%, the inhibition at 25 µM [1, 13] was 49.4% and the inhibition at 50 µM [1, 14] was 64.3%. For the same compound, the inhibition at 100 µM [1, 15] was 86.2%, the EC50 [1, 16] was 35.6 µM and the EC50 [2] was over 100 µM.

Cc1cc2c(c(=O)[nH]1)C(=O)O/C2=C\c1cccc(I)c1 [Compound 15] was tested, and the inhibition at 12.5 µM [1, 4] was 42.1%, the inhibition at 25 µM [1, 5] was 55.3% and the “% inhibition (CPT 100%), data 2” value ([1]; LdTop1 relaxation, 50 uM) was 74.2517%. The inhibition at 50 µM [1, 6] was 75.2%, the inhibition at 100 µM [1, 7] was 91.7% and the “LdTop1 inhibitory activity” value ([1]; plasmid DNA relaxation) was “considerable activity”. For the same compound, the EC50 [1, 3] was 17.4 ± 1.86 µM, the inhibition at 12.5 µM [1, 8] was 41.1% and the inhibition at 25 µM [1, 9] was 53.2%. For the same compound, the inhibition at 50 µM [1, 10] was 76.2%, the inhibition at 100 µM [1, 11] was 93% and the inhibition at 12.5 µM [1, 12] was 43.1%. The inhibition at 25 µM [1, 13] was 57.3%, the inhibition at 50 µM [1, 14] was 74.3% and the inhibition at 100 µM [1, 15] was 90.5%. For the same compound, the EC50 [1, 16] was 17.4 µM and the EC50 [2] was over 100 µM.

With CC/C=C1\OC(=O)c2c1cc(C)[nH]c2=O [Compound 16] the “LdTop1 inhibitory activity” value ([1]; plasmid DNA relaxation) was “no inhibitory activity at all”, the EC50 [1, 3] was over 100 µM and the EC50 [2] was over 100 µM.

Cc1cc2c(c(=O)[nH]1)C(=O)O/C2=C\c1ccc(Cl)cc1 [Compound 17] gave an EC50 [1, 3] of over 100 µM and an EC50 [2] of over 100 µM.

Cc1cc2c(c(=O)[nH]1)C(=O)O/C2=C\c1ccc(I)cc1 [Compound 18] was tested, and the EC50 [1, 3] was over 100 µM and the EC50 [2] was over 100 µM.

COc1ccc(/C=C2\OC(=O)c3c2cc(C)[nH]c3=O)cc1 [Compound 19] showed an EC50 [1, 3] of over 100 µM and an EC50 [2] of over 100 µM.
